Laboratory results from paper PMC8632988, “Inhibition of SYK and cSrc kinases can protect bone and cartilage in preclinical models of osteoarthritis and rheumatoid arthritis” (Scientific Reports, 2021).
Several values for one entry are separate records, joined by “and”; a condition that tells them apart may be missing. Identical values can stand only once.

Columns and labels:
MARK2/PAR-1Ba = biological target: T1, MARK2/PAR-1Ba (Homo sapiens, UniProt Q7KZI7); assay: Kinase selectivity profile assay; type: biochemical; conditions: 500 nM; relative to DMSO; read-out: Residual enzymatic activity
T1 construct: purchased Reaction Biology Corporation
Source text: (§1) Kinase activity data was expressed as the percent remaining kinase activity in test samples compared to vehicle (dimethyl sulfoxide) reactions based on the radioactivity of reaction products (see Table S2). Experiment was replicated twice.

PAK2 = biological target: T2, PAK2 (Homo sapiens, UniProt Q13177); assay: Kinase selectivity profile assay; type: biochemical; conditions: 500 nM; relative to DMSO; read-out: Residual enzymatic activity
T2 construct: purchased Reaction Biology Corporation
Source text: as §1

TSSK3/STK22C = biological target: T3, TSSK3/STK22C (Homo sapiens, UniProt Q96PN8); assay: Kinase selectivity profile assay; type: biochemical; conditions: 500 nM; relative to DMSO; read-out: Residual enzymatic activity
T3 construct: purchased Reaction Biology Corporation
Source text: as §1

IKKa/CHUK = biological target: T4, IKKa/CHUK (Homo sapiens, UniProt O15111); assay: Kinase selectivity profile assay; type: biochemical; conditions: 500 nM; relative to DMSO; read-out: Residual enzymatic activity
T4 construct: purchased Reaction Biology Corporation
Source text: as §1

PAK3 = biological target: T5, PAK3 (Homo sapiens, UniProt O75914); assay: Kinase selectivity profile assay; type: biochemical; conditions: 500 nM; relative to DMSO; read-out: Residual enzymatic activity
T5 construct: purchased Reaction Biology Corporation
Source text: as §1

EPHA2 = biological target: T6, EPHA2 (Homo sapiens, UniProt P29317); assay: Kinase selectivity profile assay; type: biochemical; conditions: 500 nM, relative to DMSO
T6 construct: purchased Reaction Biology Corporation
T6 sequence (P29317 24-976): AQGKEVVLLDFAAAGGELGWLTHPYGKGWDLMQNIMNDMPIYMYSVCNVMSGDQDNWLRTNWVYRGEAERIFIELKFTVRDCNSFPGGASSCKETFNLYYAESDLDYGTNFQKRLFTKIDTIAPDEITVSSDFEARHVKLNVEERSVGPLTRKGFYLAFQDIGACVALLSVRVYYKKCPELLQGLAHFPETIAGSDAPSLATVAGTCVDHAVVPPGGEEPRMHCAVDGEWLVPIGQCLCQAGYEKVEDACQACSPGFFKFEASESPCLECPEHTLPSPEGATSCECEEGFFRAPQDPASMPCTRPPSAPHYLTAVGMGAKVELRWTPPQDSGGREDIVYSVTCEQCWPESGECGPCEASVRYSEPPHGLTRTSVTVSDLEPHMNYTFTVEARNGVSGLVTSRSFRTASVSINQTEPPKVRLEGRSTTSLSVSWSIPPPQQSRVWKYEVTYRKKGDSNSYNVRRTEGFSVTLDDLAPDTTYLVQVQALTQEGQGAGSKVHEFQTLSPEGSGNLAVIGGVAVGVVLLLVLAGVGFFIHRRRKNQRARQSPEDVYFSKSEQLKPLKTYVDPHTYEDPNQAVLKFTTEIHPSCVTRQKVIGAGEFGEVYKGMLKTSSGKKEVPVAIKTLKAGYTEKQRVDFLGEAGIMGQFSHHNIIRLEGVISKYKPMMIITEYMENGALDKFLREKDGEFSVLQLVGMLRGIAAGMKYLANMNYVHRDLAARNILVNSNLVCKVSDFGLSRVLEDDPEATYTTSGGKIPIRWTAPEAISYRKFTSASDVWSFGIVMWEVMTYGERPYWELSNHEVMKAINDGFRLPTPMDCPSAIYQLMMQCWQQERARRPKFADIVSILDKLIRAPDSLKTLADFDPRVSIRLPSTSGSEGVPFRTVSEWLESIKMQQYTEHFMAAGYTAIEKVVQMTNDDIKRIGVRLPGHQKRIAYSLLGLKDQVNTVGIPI
Source text: as §1

SIK2 = biological target: T7, SIK2 (Homo sapiens, UniProt Q9H0K1); assay: Kinase selectivity profile assay; type: biochemical
T7 construct: purchased Reaction Biology Corporation (Malvern, PA, USA)
T7 sequence (Q9H0K1 whole entry): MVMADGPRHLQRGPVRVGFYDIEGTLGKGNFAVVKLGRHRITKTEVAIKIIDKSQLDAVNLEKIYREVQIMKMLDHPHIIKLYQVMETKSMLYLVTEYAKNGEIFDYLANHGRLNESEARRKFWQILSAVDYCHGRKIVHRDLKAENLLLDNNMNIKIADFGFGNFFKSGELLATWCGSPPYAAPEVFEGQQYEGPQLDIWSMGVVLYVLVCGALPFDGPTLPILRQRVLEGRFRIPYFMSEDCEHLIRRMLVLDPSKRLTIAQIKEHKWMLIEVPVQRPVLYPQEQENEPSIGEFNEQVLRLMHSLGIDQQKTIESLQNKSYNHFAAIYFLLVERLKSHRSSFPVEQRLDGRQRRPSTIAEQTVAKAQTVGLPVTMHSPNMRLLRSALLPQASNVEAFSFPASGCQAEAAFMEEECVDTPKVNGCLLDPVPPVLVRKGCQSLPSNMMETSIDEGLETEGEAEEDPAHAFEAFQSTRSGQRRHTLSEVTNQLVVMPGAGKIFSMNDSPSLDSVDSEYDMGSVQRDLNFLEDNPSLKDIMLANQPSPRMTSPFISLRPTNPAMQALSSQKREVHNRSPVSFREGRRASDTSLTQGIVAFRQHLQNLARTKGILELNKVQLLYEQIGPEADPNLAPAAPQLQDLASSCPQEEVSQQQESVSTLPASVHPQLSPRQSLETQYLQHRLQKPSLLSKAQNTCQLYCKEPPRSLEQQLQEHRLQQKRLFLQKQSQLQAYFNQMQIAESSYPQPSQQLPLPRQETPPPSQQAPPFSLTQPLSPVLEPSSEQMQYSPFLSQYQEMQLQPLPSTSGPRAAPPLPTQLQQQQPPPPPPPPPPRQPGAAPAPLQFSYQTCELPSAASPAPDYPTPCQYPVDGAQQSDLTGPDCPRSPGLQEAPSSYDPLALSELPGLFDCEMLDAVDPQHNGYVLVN
Source text: as §1

NEK11 = biological target: T8, NEK11 (Homo sapiens, UniProt Q8NG66); assay: Kinase selectivity profile assay; type: biochemical
T8 construct: purchased Reaction Biology Corporation (Malvern, PA, USA)
T8 sequence (Q8NG66 whole entry): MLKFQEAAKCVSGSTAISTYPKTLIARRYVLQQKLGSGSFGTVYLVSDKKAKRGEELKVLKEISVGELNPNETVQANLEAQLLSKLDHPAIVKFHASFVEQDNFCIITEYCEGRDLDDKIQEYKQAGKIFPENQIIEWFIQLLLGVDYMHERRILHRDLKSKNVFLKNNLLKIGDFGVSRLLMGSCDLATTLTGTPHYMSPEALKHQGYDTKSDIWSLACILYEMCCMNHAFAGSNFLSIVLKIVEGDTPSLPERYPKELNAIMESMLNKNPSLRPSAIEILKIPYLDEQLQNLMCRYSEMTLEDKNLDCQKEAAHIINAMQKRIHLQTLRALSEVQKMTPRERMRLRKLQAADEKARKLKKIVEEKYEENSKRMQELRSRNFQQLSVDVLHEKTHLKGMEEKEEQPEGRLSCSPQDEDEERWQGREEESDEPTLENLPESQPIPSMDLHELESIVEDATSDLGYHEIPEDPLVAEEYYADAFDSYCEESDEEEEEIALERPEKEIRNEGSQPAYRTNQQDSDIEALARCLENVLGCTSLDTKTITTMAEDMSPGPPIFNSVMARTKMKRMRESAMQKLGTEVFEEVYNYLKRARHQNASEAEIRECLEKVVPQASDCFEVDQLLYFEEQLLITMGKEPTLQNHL
Source text: as §1

TLK2 = biological target: T9, TLK2 (Homo sapiens, UniProt Q86UE8); assay: Kinase selectivity profile assay; type: biochemical; conditions: 500 nM; relative to DMSO; read-out: Residual enzymatic activity
T9 construct: purchased Reaction Biology Corporation
Source text: as §1

FYN = biological target: T10, FYN (Homo sapiens, UniProt P06241); assay: Kinase selectivity profile assay; type: biochemical
T10 construct: purchased Reaction Biology Corporation (assay service)
T10 sequence (P06241 whole entry): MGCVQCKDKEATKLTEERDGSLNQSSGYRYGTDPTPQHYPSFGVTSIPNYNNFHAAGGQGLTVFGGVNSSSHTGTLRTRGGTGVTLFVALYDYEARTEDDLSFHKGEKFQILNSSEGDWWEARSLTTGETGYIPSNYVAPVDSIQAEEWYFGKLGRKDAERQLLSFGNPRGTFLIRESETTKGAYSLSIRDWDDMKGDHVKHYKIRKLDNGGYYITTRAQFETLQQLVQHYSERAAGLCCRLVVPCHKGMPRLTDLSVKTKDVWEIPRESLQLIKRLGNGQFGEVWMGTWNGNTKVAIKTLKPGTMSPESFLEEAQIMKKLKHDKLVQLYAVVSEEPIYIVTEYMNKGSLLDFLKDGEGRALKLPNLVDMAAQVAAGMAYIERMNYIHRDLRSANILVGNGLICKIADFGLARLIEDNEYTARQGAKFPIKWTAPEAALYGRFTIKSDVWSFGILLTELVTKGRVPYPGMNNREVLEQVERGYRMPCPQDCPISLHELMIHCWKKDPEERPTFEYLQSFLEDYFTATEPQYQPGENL
Source text: as §1

MARK1 = biological target: T11, MARK1 (Homo sapiens, UniProt Q9P0L2); assay: Kinase selectivity profile assay; type: biochemical; conditions: 500 nM; relative to DMSO; read-out: Residual enzymatic activity
T11 construct: purchased Reaction Biology Corporation
Source text: as §1

PYK2 = biological target: T12, PYK2 (Homo sapiens, UniProt Q14289); assay: Kinase selectivity profile assay; type: biochemical; conditions: 500 nM; relative to DMSO; read-out: Residual enzymatic activity
T12 construct: purchased Reaction Biology Corporation
Source text: as §1

MARK3 = biological target: T13, MARK3 (Homo sapiens, UniProt P27448); assay: Kinase selectivity profile assay; type: biochemical; conditions: 500 nM; relative to DMSO; read-out: Residual enzymatic activity
T13 construct: purchased Reaction Biology Corporation
Source text: as §1

ARK5/NUAK1 = biological target: T14, ARK5/NUAK1 (Homo sapiens, UniProt O60285); assay: Kinase selectivity profile assay; type: biochemical
T14 construct: purchased Reaction Biology Corporation (assay service)
T14 sequence (O60285 whole entry): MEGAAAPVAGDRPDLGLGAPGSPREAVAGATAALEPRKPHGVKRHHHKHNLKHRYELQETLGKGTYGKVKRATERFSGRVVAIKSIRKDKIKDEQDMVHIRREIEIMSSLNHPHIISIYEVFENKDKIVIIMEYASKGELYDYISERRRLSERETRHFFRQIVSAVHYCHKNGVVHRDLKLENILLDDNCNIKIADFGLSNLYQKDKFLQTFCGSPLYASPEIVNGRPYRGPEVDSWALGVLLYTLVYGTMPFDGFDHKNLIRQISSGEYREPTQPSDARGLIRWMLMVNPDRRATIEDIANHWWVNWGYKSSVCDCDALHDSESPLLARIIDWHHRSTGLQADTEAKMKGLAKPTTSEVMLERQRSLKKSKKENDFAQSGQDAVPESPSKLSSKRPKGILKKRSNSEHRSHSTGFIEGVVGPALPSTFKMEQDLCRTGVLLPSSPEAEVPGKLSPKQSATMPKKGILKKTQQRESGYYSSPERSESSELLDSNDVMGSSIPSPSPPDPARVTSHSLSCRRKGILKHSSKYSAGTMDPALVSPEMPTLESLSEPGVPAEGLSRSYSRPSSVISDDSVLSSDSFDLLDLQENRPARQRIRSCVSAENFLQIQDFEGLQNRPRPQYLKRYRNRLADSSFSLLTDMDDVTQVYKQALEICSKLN
Source text: as §1

KDR/VEGFR2 = biological target: T15, KDR/VEGFR2 (Homo sapiens, UniProt P35968); assay: Kinase selectivity profile assay; type: biochemical; conditions: 500 nM, relative to DMSO
T15 construct: purchased Reaction Biology Corporation
T15 sequence (P35968 20-1356): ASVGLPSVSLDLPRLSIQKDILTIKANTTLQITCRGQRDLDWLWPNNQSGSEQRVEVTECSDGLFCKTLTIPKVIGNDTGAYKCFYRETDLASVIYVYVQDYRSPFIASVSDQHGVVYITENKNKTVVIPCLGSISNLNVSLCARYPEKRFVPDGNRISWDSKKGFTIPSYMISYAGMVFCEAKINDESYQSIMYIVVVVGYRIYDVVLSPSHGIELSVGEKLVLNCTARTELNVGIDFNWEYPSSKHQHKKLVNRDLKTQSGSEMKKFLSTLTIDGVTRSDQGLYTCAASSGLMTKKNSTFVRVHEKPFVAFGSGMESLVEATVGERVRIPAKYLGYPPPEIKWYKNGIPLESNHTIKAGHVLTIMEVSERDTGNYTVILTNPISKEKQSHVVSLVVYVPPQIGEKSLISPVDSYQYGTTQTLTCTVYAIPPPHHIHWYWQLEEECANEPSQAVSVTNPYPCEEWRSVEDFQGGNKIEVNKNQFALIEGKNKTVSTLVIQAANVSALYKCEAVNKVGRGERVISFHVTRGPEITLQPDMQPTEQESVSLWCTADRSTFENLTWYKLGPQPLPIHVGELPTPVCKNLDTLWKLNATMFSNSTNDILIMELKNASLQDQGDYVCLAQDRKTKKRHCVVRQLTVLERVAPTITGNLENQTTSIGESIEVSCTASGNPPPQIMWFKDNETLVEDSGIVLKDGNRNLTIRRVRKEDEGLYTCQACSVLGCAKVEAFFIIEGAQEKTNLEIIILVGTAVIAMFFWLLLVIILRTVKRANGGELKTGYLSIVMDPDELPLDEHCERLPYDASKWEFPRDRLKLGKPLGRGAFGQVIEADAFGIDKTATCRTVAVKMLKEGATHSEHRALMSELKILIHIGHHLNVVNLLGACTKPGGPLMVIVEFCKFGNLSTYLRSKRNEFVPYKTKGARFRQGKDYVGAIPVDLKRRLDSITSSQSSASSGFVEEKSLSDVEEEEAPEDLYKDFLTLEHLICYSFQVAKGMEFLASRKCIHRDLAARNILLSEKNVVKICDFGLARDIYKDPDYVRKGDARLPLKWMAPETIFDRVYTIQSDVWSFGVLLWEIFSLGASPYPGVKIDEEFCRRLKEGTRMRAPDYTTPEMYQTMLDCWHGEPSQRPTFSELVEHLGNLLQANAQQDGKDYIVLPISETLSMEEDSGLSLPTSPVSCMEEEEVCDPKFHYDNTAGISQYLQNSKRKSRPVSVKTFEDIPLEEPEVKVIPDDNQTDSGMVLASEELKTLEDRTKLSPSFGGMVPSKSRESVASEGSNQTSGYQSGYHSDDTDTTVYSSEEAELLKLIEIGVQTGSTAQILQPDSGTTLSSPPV
Source text: as §1

TRKC = biological target: T16, TRKC (Homo sapiens, UniProt Q16288); assay: Kinase selectivity profile assay; type: biochemical; conditions: 500 nM; relative to DMSO; read-out: Residual enzymatic activity
T16 construct: purchased Reaction Biology Corporation
Source text: as §1

CAMK1g = biological target: T17, CAMK1g (Homo sapiens, UniProt Q96NX5); assay: Kinase selectivity profile assay; type: biochemical; conditions: 500 nM; relative to DMSO; read-out: Residual enzymatic activity
T17 construct: purchased Reaction Biology Corporation
Source text: as §1

PKG2/PRKG2 = biological target: T18, PKG2/PRKG2 (Homo sapiens, UniProt Q13237); assay: Kinase selectivity profile assay; type: biochemical; conditions: 500 nM; relative to DMSO; read-out: Residual enzymatic activity
T18 construct: purchased Reaction Biology Corporation
Source text: as §1

JAK2 = biological target: T19, JAK2 (Homo sapiens, UniProt O60674); assay: Kinase selectivity profile assay; type: biochemical
T19 construct: purchased Reaction Biology Corporation (assay service)
Source text: as §1

FES/FPS = biological target: T20, FES/FPS (Homo sapiens, UniProt P07332); assay: Kinase selectivity profile assay; type: biochemical; conditions: 500 nM; relative to DMSO; read-out: Residual enzymatic activity
T20 construct: purchased Reaction Biology Corporation
Source text: as §1

JNK2 = biological target: T21, JNK2 (Homo sapiens, UniProt P45984); assay: Kinase selectivity profile assay; type: biochemical; conditions: 500 nM; relative to DMSO; read-out: Residual enzymatic activity
T21 construct: purchased Reaction Biology Corporation
Source text: as §1

JNK1 = biological target: T22, JNK1 (Homo sapiens, UniProt P45983); assay: Kinase selectivity profile assay; type: biochemical; conditions: 500 nM; relative to DMSO; read-out: Residual enzymatic activity
T22 construct: purchased Reaction Biology Corporation
Source text: as §1

CAMK1d = biological target: T23, CAMK1d (Homo sapiens, UniProt Q8IU85); assay: Kinase selectivity profile assay; type: biochemical; conditions: 500 nM; relative to DMSO; read-out: Residual enzymatic activity
T23 construct: purchased Reaction Biology Corporation
Source text: as §1

NEK2 = biological target: T24, NEK2 (Homo sapiens, UniProt P51955); assay: Kinase selectivity profile assay; type: biochemical; conditions: 500 nM; relative to DMSO; read-out: Residual enzymatic activity
T24 construct: purchased Reaction Biology Corporation
Source text: as §1

Aurora A = biological target: T25, Aurora A (Homo sapiens, UniProt O14965); assay: Kinase selectivity profile assay; type: biochemical; conditions: 500 nM; relative to DMSO; read-out: Residual enzymatic activity
T25 construct: purchased Reaction Biology Corporation
Source text: as §1

ITK = biological target: T26, ITK (Homo sapiens, UniProt Q08881); assay: Kinase selectivity profile assay; type: biochemical; conditions: 500 nM; relative to DMSO; read-out: Residual enzymatic activity
T26 construct: purchased Reaction Biology Corporation
Source text: as §1

SYK = SYK (Homo sapiens, UniProt P43405); assay: Kinase selectivity profile assay; type: biochemical; set-up: purchased Reaction Biology Corporation; conditions: 500 nM; relative to DMSO; read-out: Residual enzymatic activity
Source text: as §1

[1] = test system: SYK-mediated signaling in human B-cell lymphoma cells; assay: Detection of SYK activity in cells by Western blot; type: cell-based; conditions: 1, 3, 10 uM
Experimental: Western blot was performed at A. N. Bakh Institute of Biochemistry, Russia. Human B-cell lymphoma cells obtained from Russian collection cell cultures (RCCC) were cultured in 5% CO2 humidified atmosphere at 37 °C in RPMI 1640 supplemented with 100 U mL^–1 penicillin/streptomycin and 10% heat inactivated FBS. P3H3 cells (10^6 cells in 1 ml of RPMI media with 5% FBS) were incubated with test compound or vehicle control (DMSO, 1%) for one hour at 37 °C in a 5% CO2-incubator. Then anti-IgM (1 μg/mL) was added to activate B-cell receptors and incubation continued for additional 15 min. After that the cells were washed with cooled PBS buffer and were lysed in 200 μL of ice-cold lysis buffer (62,5 mM Tris–HCl, pH 6.8, 2% w/v SDS, 10% glycerin, 50 mM DTT, 0,01% w/v BPB). Then lysates were sonicated for 20 s in ice, heated to 95–100 °C for 5 min and centrifuged for 5 min. 20 μL of obtained samples were electrophoresed on 10% SDS–polyacrylamide gel (gel blocks: 90 × 60 × 1.5 mm; current intensity: 30 mA, time: 2.5–3 h) and transferred to nitrocellulose membranes (BioRad). Western blotting was carried out according to the Amersham Pharmacia Biotech ECL Western blotting protocol. […]

[2] = read-out: Residual enzymatic activity
[3] = 500 nM, relative to DMSO, read-out: Residual enzymatic activity
[4] = 10-dose mode, threefold serial dilution from 10 μM

COc1cc(Nc2ncnc(Nc3cc4c(cn3)NC(=O)C(C)(C)O4)n2)cc(OC)c1OC [MT-SYK-03]
remaining activity at 0.5 µM (MARK2/PAR-1Ba): 97.9% | remaining activity at 0.5 µM (PAK2): 94.1% | remaining activity at 0.5 µM (TSSK3/STK22C): 99.9% | remaining activity at 0.5 µM (IKKa/CHUK): 100% | remaining activity at 0.5 µM (PAK3): 87% | Residual enzymatic activity (EPHA2): 56.3% | remaining activity at 0.5 µM (EPHA2; [2]): > 54% | remaining activity at 0.5 µM (SIK2; [3]): 16.2% | IC50 (SIK2; [4]): 23 nM and 23.4 nM | remaining activity at 0.5 µM (NEK11; [3]): 35.9% | IC50 (NEK11; [4]): 26.1 nM | remaining activity at 0.5 µM (TLK2): 95.6% | remaining activity at 0.5 µM (FYN; [3]): 25.2% | IC50 (FYN; [4]): 20 nM | remaining activity at 0.5 µM (MARK1): 95.7% | remaining activity at 0.5 µM (PYK2): 63.4% | remaining activity at 0.5 µM (MARK3): 97.1% | remaining activity at 0.5 µM (ARK5/NUAK1; [3]): 49.7% | IC50 (ARK5/NUAK1; [4]): 376 nM | Residual enzymatic activity (KDR/VEGFR2): did not inhibit | remaining activity at 0.5 µM (KDR/VEGFR2; [2]): 88.6% | remaining activity at 0.5 µM (TRKC): 84.5% | remaining activity at 0.5 µM (CAMK1g): 99.2% | remaining activity at 0.5 µM (PKG2/PRKG2): 94.2% | remaining activity at 0.5 µM (JAK2; [3]): 27% | IC50 (JAK2; [4]): 67.2 nM | remaining activity at 0.5 µM (FES/FPS): 92.2% | remaining activity at 0.5 µM (JNK2): 92.6% | remaining activity at 0.5 µM (JNK1): 94.3% | remaining activity at 0.5 µM (CAMK1d): 108% | remaining activity at 0.5 µM (NEK2): 86% | remaining activity at 0.5 µM (Aurora A): 74.4% | remaining activity at 0.5 µM (ITK): 102% | remaining activity at 0.5 µM (SYK): 57.4% | Anti-IgM induced autophosphorylation of SYK and phosphorylation of CD19, BTK, ERK1/2 and JNK1/2 [1]: dose-dependently inhibited
